# Assay results as given in patent US20210095293A1, “METHODS OF TREATING CANCERS WITH GPR132 INHIBITORS” (The Board of Regents of the University of Texas System, priority 2016, published 2021).
# Where a name gives a salt, the structure may show the parent alone.
# B1: IL-4: standard T helper 2 cytokine used to trigger macrophage M2 activation (protein, UniProt P05112 25-153, looked up)
# Interleukin-4: HKCDITLQEIIKTLNSLTEQKTLCTELTVTDIFAASKNTTEKETFCRAATVLRQFYSHHEKDTRCLGATAQQFHRHKQLIRFLKRLDRNLWGLAGLNSCPVKEANQSTLENFLERLKTIMREKYSKCSS
# What was measured:
# Type in all cases: cell-based, mouse
# Gpr132 = test: calcium mobilization assay in BMDMs; details: WT or Gpr132-KO BMDMs stimulated with 25 mM
# Method: FIG. 27. […] WT or Gpr132-KO BMDMs were stimulated with 25 mM lactate (Left) or HCl (Right) (n=3).
# To determine whether Gpr132 is required for lactate signaling in macrophages, a calcium mobilization assay was performed. […] First, lactate levels in the CM of distinct cancer cell lines were measured using a Vitros 250 chemistry analyzer. […] Second, the effects of blocking lactate production from EO771 and 4T1.2 cells by oxamic acid, an inhibitor of lactate dehydrogenase was tested.
# [1] = system: bone marrow derived macrophages (BMDMs); test: macrophage M2-like morphology (elongation); details: cancer cells treated with oxamic acid 90 mM for 3 days before CM harvest
# Source text: FIGS. 9A-9D. Tumor-derived factors activate M2-like macrophages via Gpr132. (FIG. 9A) The pH values of conditioned media (CM) from cancer cells or macrophages (n=5-8); *p<0.05, ****p<0.001 compared with RAW 264.7 macrophage CM. (FIG. 9B) Western blot for CD206 and Gpr132 in RAW 264.7 macrophages after treatment with indicated cancer cell CM for 24 hrs. Actin was used as a loading control. The CD206/actin or Gpr132/actin ratio was quantified and shown as fold changes compared to control (n=3); *p<0.05, ***p<0.005 compared with control. (FIG. 9C) Flow cytometry analysis of Gpr132 and CD206 in BMDMs with or without EO771 CM treatment. The experiments were repeated twice and the representative results are shown. (FIG. 9D) Immunofluorescence staining for CD11b in WT and Gpr132-KO BMDMs after differentiation in the absence or presence of 30% EO771 CM or 4T1.2 CM for 7 days. Elongated macrophage morphology indicates a M2-like phenotype. Nuclei were stained with DAPI. Scale bar, 25 μm. WT, wild-type; Gpr132-KO, Gpr132 knockout.
# FIGS. 10A-10F. […] LC-MS was used to quantify lactate in the eluent of Gpr132 co-IP. (Left) Representative LC-MS chromatograms; (Right) Quantification of relative lactate binding (n=3). ****p<0.001 compared with WT. […] CD206/actin ratio was quantified and shown as fold changes compared to control (n=3-4); *p<0.05 compared with WT control. […]
# [2] = system: breast cancer cells (4T1.2, EO771); test: Boyden chamber assay, cancer cell migration; details: oxamic acid 90 mM pre-treatment; WT macrophages
# Method: (§1) FIGS. 11A-11C. Lactate-activated macrophage promotes cancer cell adhesion, migration and invasion via Gpr132. (FIG. 11A) Adherence assays. 4T1.2 cells were suspended in fibronectin ([…]) pre-coated plates with CM from spleen-derived macrophages (mf) that were treated with 4T1.2 CM or lactate (5 mM) with or without Gpr132 antibody (6 mg/ml) or normal IgG (6 mg/ml) for 10 min. The adhered cells were stained with crystal violet, dissolved in 1% Triton X-100 and measured by OD590. (FIGS. 11B-11C) Boyden chamber assay of cancer cell migration and invasion. 4T1.2 cells (B) or EO771 cells (FIG. 11C) were plated on the upper chamber inserts, with untreated (Control), 4T1.2 CM-activated or lactate-activated spleen-derived WT or Gpr132-KO macrophages plated in the lower chambers. For invasion assay, the inserts were pre-coated with 60 μl matrigel. After migration for 6 hrs (FIG. 11B) or invasion for 24 hrs (FIG. 11C), the migrated or invaded cells were stained with crystal violet and counted as cells per field of view under microscope (n=3-4); For (FIG. 11C), the first bar of each data set of the bar graphs represents the control mf, and the second bar represents Gpr132KO; *p<0.05; **p<0.01; ***p<0.005; ****p<0.001. Scale bar, 500 μm.
# (§2) FIGS. 23A-23B. Cancer cell-derived lactate activates macrophages to promote cancer cell migration and invasion via Gpr132. (FIGS. 23A-23B) Boyden chamber assay. EO771 or 4T1.2 cells were cultured in the presence or absence of oxamic acid (90 mM) for 3 days. CM was harvested after the cells were cultured for another 24 hrs without oxamic acid. As a rescue, CM of oxamic acid-treated EO771 or 4T1.2 cells was supplemented with exogenous lactate. […] After migration for 6 hrs (FIG. 23A) or invasion for 24 hrs (FIG. 23B), the migrated or invaded cells were stained with crystal violet and counted as cells per field of view under microscope (n=3-4); for (FIG. 23A), the bars in each data set of the bar graph represent, from left to right, control, EO771, Oxamic acid, and Oxamic acid+Lactate; for (FIG. 23B), the bars in each data set of the bar graph represent, from left to right, control, 4T1.2CM, Oxamic acid, and Oxamic acid+Lactate; *p<0.05; ****p<0.001. […]
# Migration or invasion of breast cancer cells was examined using 24-well Boyden chambers (Corning, Corning, N.Y.) with transwell inserts of […] pore size, coated without (for migration) or with matrigel (for invasion) as previously reported. […] The migrated or invaded cells were fixed with methanol and stained with crystal violet (0.05%, sigma), and then counted as cells per field of view under microscope or measured as OD570 after crystal violet was dissolved.
# [3] = system: breast cancer cells (EO771, 4T1.2); test: Boyden chamber assay, cancer cell invasion (matrigel); details: oxamic acid 90 mM pre-treatment; WT macrophages
# Method: as §1
# as §2, with “acid.” for “acid. As a rescue, CM of oxamic acid-treated EO771 or 4T1.2 cells was supplemented with exogenous lactate.”
# EO771 and 4T1.2 cells = test: lactate and pH in cancer cell conditioned media; details: oxamic acid 90 mM for 3 days, CM after another 24 hrs
# Method: FIGS. 18A-18E. Lactate secreted by EO771 and 4T1.2 cells is responsible for the low pH in their CM. (FIG. 18A) Lactate levels in the conditional media (CM) from various cancer cells (n=3); *p<0.05, ****p<0.001 compared with EO771 CM; #### p<0.001 compared with 4T1.2 CM. (FIG. 18B) Lactate levels in EO771 CM at the indicated time point of culture (n=3). (FIG. 18C) Lactate levels in the whole CM, <3 kDa and >3 kDa fractions of CM from 24 h EO771 cell cultures (n=3). (FIGS. 18D-18E) EO771 and 4T1.2 cells were treated with or without oxamic acid (90 mM) for 3 days. CM was harvested after the cells were cultured for another 24 hrs without oxamic acid before lactate (FIG. 18D) and pH (FIG. 18E) quantification (n=3). **p<0.01, ***p<0.005, ****p<0.001.
# RAW264.7, EO771, 4T1.2, PY8119, PY230, SCP-4, SCP-6, SCP-28, MDA-1883, MDA-2287 and B16F10 cell lines were cultured in culture media containing 10% FBS (Sigma) and 1:100 antibiotic-antimycotic (Gibco). Conditioned media were obtained from serum-free media after culturing cells for 24 hrs or as indicated. Bone marrow-derived macrophages (BMDMs) and spleen-derived macrophages from WT and Gpr132-KO mice were cultured as previously described. Lactate in the conditioned media was quantified using a Vitros 250 chemistry analyzer at the UT Southwestern Metabolic Phenotyping Core.
# macrophages = test: M2 marker expression in macrophages (Western blot, RT-qPCR, flow cytometry); details: IL-4 10 ng/ml for 16 hrs, spleen macrophages
# Method: After blocking with 10% BSA for 10 min, cells were incubated with anti-CD206 (Rabbit polyclonal, Abcam) or anti-Gpr132 (Rabbit polyclonal, Sigma) antibodies (1:100) for 30 min at 4° C., washed with cold PBS, and then incubated with FITC-conjugated secondary antibodies (1:100) for 30 min at 4° C. After washing twice using cold PBS, cells were analyzed by flow cytometer (Becton Dickinson). RNA was isolated from cells or mouse tissues using Trizol (Invitrogen) following the manufacturer's instructions. RNA (200-500 ng) was first treated with RNase-free DNase I using the DNA-free kit (Ambion) to remove all genomic DNA, and then reverse-transcribed into cDNA using an ABI High Capacity cDNA RT Kit (Invitrogen). The cDNA was analyzed using real-time quantitative PCR (SYBR Green, Invitrogen) with an Applied Biosystems 7900 Sequence Detection System. Each reaction was performed in triplicate in a 384-well format. The expression of each gene was normalized by that of mouse ribosomal protein L19. Samples of 20 μg protein were applied to SDS polyacrylamide gels. After protein transfer, membranes were incubated with antibodies for […] (rabbit polyclonal, Santa Cruz Biotechnology), CD206, Gpr132, or β-actin (mouse monoclonal, Sigma) (1:1000) overnight at 4° C. Membranes were washed, and then incubated with HRP-conjugated secondary antibodies (1:1000) for 1 hr at room temperature before signal detection by chemiluminescence (Pierce). Densitometric quantification was performed by Image-Pro Plus 6.0 software (Media Cybernetics). PathScan Akt Signaling Antibody Array (Cell Signaling) was incubated with macrophage proteins and analyzed following kit instructions.
molecule,measurement,setting,value
"Cl [hydrochloric acid (HCl), hydrochloric acid]",effect of Gpr132 deletion on triggered calcium mobilization,Gpr132,not
NC(=O)C(=O)O [oxamic acid],ability of EO771 or 4T1.2 CM to induce M2-like morphology in WT BMDMs,[1],completely abolished
same,effects of CM-activated WT macrophages on cancer cell migration after pre-treatment of cancer cells,[2],abolished
same,effects of CM-activated WT macrophages on cancer cell invasion after pre-treatment of cancer cells,[3],abolished
same,lactate in the CM,EO771 and 4T1.2 cells,depleted
B1,"induction of M2 markers (Arg-1, CCL17, CCL22, PPAR-γ, YM-1, YM-2), WT vs Gpr132-KO macrophages",macrophages,equally well
